{
  "source": "ChEMBL document CHEMBL1151216",
  "about": "“New constituents of Artemisia monosperma” (2004)",
  "key": {"[1]": {"test_system": "Staphylococcus aureus", "assay": "Antibacterial activity against methicillin-resistant Staphylococcus aureus", "assay_type": "functional"}, "[2]": {"test_system": "Staphylococcus aureus", "assay": "Antibacterial activity against multidrug-resistant Staphylococcus aureus", "assay_type": "functional"}},
  "data": [
    {"smiles": "C=C[C@@H](O)C#CC#C[C@H](O)CCO", "values": [
      {"measurement": "MIC", "setting": "[1]", "result": "> 128", "unit": "µg/mL"},
      {"measurement": "MIC", "setting": "[2]", "result": "> 128", "unit": "µg/mL"}
    ]},
    {"smiles": "CC1=C2[C@H](O)[C@H](C(C)C)CC[C@@]2(C)[C@H](O)C[C@H]1O", "note": "(relative stereo)", "values": [
      {"measurement": "MIC", "setting": "[1]", "result": "> 128", "unit": "µg/mL"},
      {"measurement": "MIC", "setting": "[2]", "result": "> 128", "unit": "µg/mL"}
    ]}
  ]
}
